Measured values reported in PMC7565984, “A Phosphorylation-Induced Switch in the Nuclear Localization Sequence of the Intrinsically Disordered NUPR1 Hampers Binding to Importin” (Biomolecules, 2020).
Where a SMILES comes first, the peptide text is derived from it.

T1: human importin α3 (Impα3) (Homo sapiens, UniProt O00629)
T1 construct: although the IBB region maintains its independence within the whole Impα3 in terms of conformation; His-tag (N); made in house; host or cells: Escherichia coli BL21 (DE3)
T1 sequence (O00629 1-521): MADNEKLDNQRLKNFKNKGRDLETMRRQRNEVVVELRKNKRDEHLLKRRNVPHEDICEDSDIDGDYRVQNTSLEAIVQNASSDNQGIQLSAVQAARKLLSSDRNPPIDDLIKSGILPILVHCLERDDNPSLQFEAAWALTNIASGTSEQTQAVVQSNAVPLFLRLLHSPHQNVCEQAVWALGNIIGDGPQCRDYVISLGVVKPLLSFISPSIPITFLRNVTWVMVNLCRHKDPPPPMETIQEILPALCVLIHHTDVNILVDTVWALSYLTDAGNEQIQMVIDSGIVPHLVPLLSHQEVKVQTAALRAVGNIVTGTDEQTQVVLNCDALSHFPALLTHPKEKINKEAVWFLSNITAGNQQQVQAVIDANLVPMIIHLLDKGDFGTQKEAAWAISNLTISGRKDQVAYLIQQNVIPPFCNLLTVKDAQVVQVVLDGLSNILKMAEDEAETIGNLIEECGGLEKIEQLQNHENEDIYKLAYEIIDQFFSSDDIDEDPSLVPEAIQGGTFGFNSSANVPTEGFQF

T2: ΔImpα3 (importin α3 without the IBB domain, residues 64-521) (Homo sapiens, UniProt O00629)
T2 construct: The His-tagged ΔImpα3 (residues 64-521) was obtained from BL21 (DE3) cells as described; His-tag; made in house; host or cells: Escherichia coli BL21 (DE3)
T2 sequence (O00629 64-521): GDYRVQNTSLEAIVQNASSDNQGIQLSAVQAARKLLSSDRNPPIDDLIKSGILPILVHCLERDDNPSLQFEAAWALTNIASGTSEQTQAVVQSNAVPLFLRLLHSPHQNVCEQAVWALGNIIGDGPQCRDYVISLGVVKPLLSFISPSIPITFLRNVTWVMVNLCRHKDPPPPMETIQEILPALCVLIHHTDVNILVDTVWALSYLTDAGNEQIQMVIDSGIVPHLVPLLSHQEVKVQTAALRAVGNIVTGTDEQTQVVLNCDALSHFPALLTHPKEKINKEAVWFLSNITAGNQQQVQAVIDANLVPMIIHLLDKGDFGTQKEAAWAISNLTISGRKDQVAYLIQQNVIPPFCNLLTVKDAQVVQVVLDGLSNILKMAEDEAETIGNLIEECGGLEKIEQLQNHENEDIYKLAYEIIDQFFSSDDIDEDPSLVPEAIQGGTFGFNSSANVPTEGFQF

T3: truncated importin α3 without the IBB domain (residues 64-521) (human, UniProt O00629 64-521)
T3 construct: human importin α3 (KPNA4) without the IBB domain, residues 64-521; also called ΔImpα3; ΔImportin
T3 sequence (looked up): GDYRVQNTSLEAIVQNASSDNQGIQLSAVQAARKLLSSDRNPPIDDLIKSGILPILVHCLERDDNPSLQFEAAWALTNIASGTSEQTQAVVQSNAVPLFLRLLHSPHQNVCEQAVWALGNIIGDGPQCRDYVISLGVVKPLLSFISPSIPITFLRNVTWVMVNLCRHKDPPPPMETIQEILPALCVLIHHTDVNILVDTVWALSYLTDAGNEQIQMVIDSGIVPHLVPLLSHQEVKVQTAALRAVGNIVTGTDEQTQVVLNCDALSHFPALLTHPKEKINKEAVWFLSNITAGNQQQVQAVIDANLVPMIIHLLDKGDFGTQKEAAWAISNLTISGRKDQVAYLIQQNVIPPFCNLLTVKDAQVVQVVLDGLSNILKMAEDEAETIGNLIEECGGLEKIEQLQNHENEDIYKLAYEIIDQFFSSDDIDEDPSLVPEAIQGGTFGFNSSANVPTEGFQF


Experiments:
[1] = Translational diffusion by NMR DOSY (hydrodynamic properties); type: physicochemical
Protocol: Concentrations of peptides in all DOSY experiments were 120 μM, and 128 scans, where the gradient strength was varied, were acquired for each curve. Translational self-diffusion measurements were performed with the pulsed gradient spin-echo sequence in the presence of 100% D2O. Experimental details have been described elsewhere. Briefly, the gradient strength was varied in sixteen linear steps between 2% and 95% of the total power of the gradient coil. The gradient strength was previously calibrated by using the value of the translational diffusion coefficient, D, for the residual proton water line in a sample containing 100% D2O in a 5-mm tube [34]. In our experiments for each peptide, the duration of the gradient was 2.25 ms, the time between the two pulse gradients in the pulse sequence was set to 200 ms, and the recovery delay between the bipolar gradients was set to 100 μs. The methyl groups with signals between 1.0 and 0.80 ppm were used for integration. Fitting of the exponential curves obtained from experimental data was carried out with KaleidaGraph (Synergy Software, Version 3.5), as described. A final concentration of 1% of dioxane, which was assumed to have a hydrodynamic radius Rh = 2.12 Å [34], was added to the solutions of each of the peptides to have a comparison for estimating their sizes.

[2] = target: T1, human importin α3 (Impα3); assay: ITC binding of NLS-NUPR1 peptides / NUPR1 to Impα3
Protocol: (§1) The experimental set-up and data processing of ITC experiments has been described previously. Calorimetric titrations, performed in an Auto-iTC200 calorimeter (MicroCal, Malvern-Panalytical, Malvern, UK) consisted of series of 19 2-μL injections, with 150 s time spacing and a 750-rpm stirring speed. Impα3 or ΔImpα3 (at 10–20 μM) was loaded into the calorimetric cell and NLS-NUPR1 peptides in the syringe (150–300 μM); all solutions were prepared in buffer Tris 50 mM, pH 8. […] The binding affinity (association constant) and the binding enthalpy were estimated through a least-squares nonlinear regression data analysis, from which the Gibbs energy and the entropic contribution to the binding were calculated using well-known thermodynamic relationships. Since the binding stoichiometry is constrained by the model, the parameter n provides a fraction of the active or binding competent protein. Experiments for each peptide and importin species were performed, at least, in duplicates.

[3] = target: T2, ΔImpα3 (importin α3 without the IBB domain, residues 64-521); assay: ITC binding of NLS-NUPR1 peptides / NUPR1 to ΔImpα3
Protocol: as §1

[4] = target: T3, truncated importin α3 without the IBB …; assay: ITC; intact NUPR1 with ΔImpα3; conditions of this titration are not told (Figure S4); conditions: both partners purified
[5] = target: T1, human importin α3 (Impα3); conditions: ITC, shown in Figure S4 for comparison; previously measured; read-out: Kd (dissociation constant) of intact NUPR1 for Impα3; cited from earlier work
Description: Furthermore, we tried to dissect the affinity of the NLS region of NUPR1 for Impα3 by using a “divide and conquer” approach with the peptides comprising the region. The interaction between full-length NUPR1 and its mutants with Impα3 and ΔImpα3 was the focus of this study, but instead, we emplo ... || In this work, we tried first to find out whether the theoretically predicted NLS region of NUPR1 was capable of binding in isolation to Impα3. Second, we tried to elucidate, for the first time, the molecular bases behind the binding of an NLS region of an IDP to an importin. […] These findings allow us to draw several conclusions. […] However, t ...

[6] = ITC, 298 K, Tris 50 mM pH 8, absolute error 0.5 kcal/mol
[7] = ITC, 298 K, Tris 50 mM pH 8, calculated from Kd and ΔH, absolute error 0.7 kcal/mol

Molecule	D, translational diffusion coefficient ([1]; 283 K, pH 7.2, 50-mM deuterated Tris, 100% D2O, peptide 120 μM) [cm^2 s^−1 × 10^6]	Rh, hydrodynamic radius from D ([1]; from the translational diffusion coefficient of dioxane (Rh = 2.12 Å) added to each sample) [Å]	ΔH (binding enthalpy), Impα3 [2, 6] [kcal/mol]	−TΔS (entropic contribution), Impα3 [2, 7] [kcal/mol]	Experimental binding free energy, Impα3 ([2]; from ITC, Table 2, 298 K) [kcal/mol]	ΔH (binding enthalpy), ΔImpα3 [3, 6] [kcal/mol]	−TΔS (entropic contribution), ΔImpα3 [3, 7] [kcal/mol]	Experimental binding free energy, ΔImpα3 ([3]; from ITC, Table 2, 298 K) [kcal/mol]	Kd ([3]; ITC, 298 K, Tris 50 mM pH 8, importin 10–20 μM in cell, peptide 150–300 μM in syringe, 1:1 model, at least duplicates, relative error 30%, read-out: Kd (dissociation constant), ΔImpα3) [nM]	Kd [4] [nM]	Kd [5] [nM]
CC(=O)N[C@@H](Cc1ccc(O)cc1)C(=O)N[C@H](C(=O)N[C@@H](CC(N)=O)C(=O)N[C@@H](CCCNC(=N)N)C(=O)N1CCC[C@H]1C(=O)N[C@@H](CO)C(=O)N1CCC[C@H]1C(=O)NCC(=O)NCC(=O)N[C@@H](Cc1c[nH]cn1)C(=O)N[C@@H](CCC(=O)O)C(=O)N[C@@H](CCCNC(=N)N)C(=O)N[C@@H](CCCCN)C(=O)N[C@@H](CC(C)C)C(=O)N[C@H](C(=O)N[C@H](C(=O)N[C@@H](CCCCN)C(=O)N[C@@H](CC(C)C)C(=O)N[C@@H](CCC(N)=O)C(=O)N[C@@H](CC(N)=O)C(=O)N[C@@H](CO)C(=O)N[C@@H](CCC(=O)O)C(N)=O)[C@@H](C)O)C(C)C)[C@@H](C)O [wt] (Ac-YTNRPSPGGHERKLVTKLQNSE-NH2)	1.85 ± 0.04	11 ± 1	0.8	-8.7	-7.87	-3.7	-4.5	-8.22	–	–	–
intact NUPR1 (full-length, 82 residues) (natural protein, UniProt O60356 1-82, looked up, NUPR1, UniProtKB O60356, 82 residues long (8 kDa), intact protein; also called full-length NUPR1; nuclear protein 1) MATFPPATSAPQQPPGPEDEDSSLDESDLYSLAHSYLGGGGRKGRTKREAAANTNRPSPGGHERKLVTKLQNSERKKRGARR	–	–	–	–	–	–	–	–	440	400	1400
